In PMC11459959, “Discovery of new acetamide derivatives of 5-indole-1,3,4-oxadiazol-2-thiol as inhibitors of HIV-1 Tat-mediated viral transcription” (Antimicrobial Agents and Chemotherapy, 2024):
Where two headings read alike, the source gives them in different places.

How the values were obtained:
Assay type in all cases: cell-based
[1] = system: INSTI-resistant HIV-1 strain 11847; test: microbe, parasite or virus in culture; conditions: Human immunodeficiency virus 1, TZM-bl
[2] = system: INSTI-resistant HIV-1 strain 11849; test: microbe, parasite or virus in culture; conditions: Human immunodeficiency virus 1, TZM-bl
[3] = Cell viability of A3.01 cells; conditions: human
Procedure: The p24 level from the cell supernatant was subsequently determined using a p24 […] kit (PerkinElmer). In parallel, the cell viability was determined without viral infection because of the viral cytopathic effect. […] In parallel, cell viability was determined. The data (A and B) are presented as the mean ± SD (n = 3). (C) PBMCs (4 × 10^5) infected with HIV-AD8 at an MOI of 0.1 were treated with 1.5 µM of the compounds or ARVs for 3 days. The levels of p24 and cell viability were subsequently determined. (D) J1.1 cells were cultured with the compounds ([…]) under 50 ng/mL phorbol myristate acetate (PMA) treatment for 2 days. The level of p24 was subsequently determined. (E) J-Lat 6.3 cells were treated with the compounds (1.5 µM) under 1 µg/mL of PMA for 2 days. The GFP-positive cell population was analyzed using flow cytometry. The data are represented as a value relative to the DMSO-treated vehicle (D) and a percent of the GFP^+ cell population (E) as mean ± SD (n = 3).
The inhibitory effects of the compounds on viral replication were determined with some minor modifications, as previously described ([12], [62]). […] PBMCs (4 × 10^5) pre-activated with PHA-M for 3 days were washed with fresh media to remove excess PHA-M and subsequently infected with HIV-1NL4-3 or HIV-1AD8 or PIs-resistant HIV-1 strains as A3.01 infection. After infection, the infectious media were replaced with fresh media supplemented with international 10 units (IU)/mL of IL-2 and the indicated compounds. At 72 h after infection, the inhibitory effect of the compounds on viral replication was determined by measuring the p24 amount, an HIV capsid protein, using an HIV-1 p24 […] kit (PerkinElmer, Waltham, MA, USA). Cell viability was determined as described above. The inhibitory effects on provirus reversing in J1.1 and J-Lat 6.3 cells were determined as previously described ([12], [41], [63]) with some minor modifications. Briefly, 5 × 10^4 persistently HIV-1-infected J1.1 or J-Lat 6.3 cells were cultured in either the presence or absence of the compounds at a final concentration of 1.5 µM and treated with PMA (50 ng/mL for J1.1 cells, 1 µg/mL for J-Lat 6.3 cells). Two days after treatment, the levels of viral production were determined using p24 […] for J1.1 cells and flow cytometry analysis for GFP-expressing J-Lat 6.3 cells.

[4] = system: NNRTI-resistant HIV-1 strain 12243; test: microbe, parasite or virus in culture; conditions: Human immunodeficiency virus 1, TZM-bl
[5] = system: NNRTI-resistant HIV-1 strain 12241; test: microbe, parasite or virus in culture; conditions: Human immunodeficiency virus 1, TZM-bl
[6] = A3.01 cells, absence of HIV-1 infection, mean ± SD, read-out: CC50

Row | SMILES | EC50 [1] [nM] | EC50 [2] [nM] | CC50 at 3 days [3] [µM] | EC50 [4] [nM] | EC50 [5] [nM] | CC50 at 3 days [3, 6] [µM]
1 | C[C@@H]1CCO[C@H]2Cn3cc(C(=O)NCc4ccc(F)cc4F)c(=O)c(O)c3C(=O)N12 [DTG, dolutegravir, reference compound] | 10 ± 10 | 10 | 7.67 ± 0.61 |  |  | 
2 | Cc1[nH]c2ccc(-c3nnc(SCC(=O)N4CCCC4)o3)cc2c1C [Compound 13, 2-((5-(2,3-Dimethyl-1H-indol-5-yl)-1,3,4-oxadiazol-2-yl)thio)-1-(pyrrolidin-1-yl)ethan-1-one] | 140 ± 10 | 230 ± 20 | 47.6 ± 1.88 | 180 ± 10 | 200 | 
3 | Cc1[nH]c2ccc(-c3nnc(SCC(=O)N4CCCCC4)o3)cc2c1C [Compound 9, 2-((5-(2,3-Dimethyl-1H-indol-5-yl)-1,3,4-oxadiazol-2-yl)thio)-1-(piperidin-1-yl)ethan-1-one] | 70 | 80 ± 20 | 56.1 ± 4.48 | 60 | 70 | 
4 | CC(C)[C@]12O[C@H]1[C@@H]1O[C@]13[C@]1(O[C@H]1C[C@H]1C4=C(CC[C@@]13C)C(=O)OC4)[C@@H]2O [triptolide, reference compound] |  |  |  |  |  | 0.22 ± 0.04
5 | O=C1Nc2ccc(Cl)cc2[C@@](C#CC2CC2)(C(F)(F)F)O1 [EFV, efavirenz, reference compound] |  |  |  | 15500 ± 3390 | 4360 ± 80 | 22.7 ± 1.65
